Experimental data reported in US10478505B2, “Edible oils to enhance delivery of orally administered steroids” (The Regents of the University of California, priority 2011, dated 2019).
Entries after “also recorded” stand apart in the source; their conditions may differ.

Assays:
NIH Swiss mice [1] = experiment: PTZ seizure threshold test (intravenous PTZ infusion); type: in vivo, mouse; details: for anticonvulsant activity in the PTZ seizure threshold test (seizure threshold): 50 mg/kg (5 mg/ml) and 100 mg/kg (10 mg/ml)
Experimental: (§1) Animals. Male NIH Swiss mice (22-30 g) were housed four per cage. Animals were kept in a vivarium under controlled laboratory conditions (temperature, 22-26° C.; humidity, 40-50%) with an artificial 12-h light/dark cycle and free access to food and water. Animals were allowed to acclimate to the vivarium for ≥5 days. The experiments were performed during the light phase of the light/dark cycle after a ≥30-min period of acclimation to the experimental room. Animals were maintained in facilities fully accredited by the Association for Assessment and Accreditation of Laboratory Animal Care, and all studies were performed under protocols approved by the University of California, Davis, Institutional Animal Care and Use Committee the Animal Care and Use in strict compliance with the Guide for the Care and Use of Laboratory Animals of the National Research Council (National Academy Press, Washington, D.C.; on the internet at nap.edu/readingroom/books/labrats/).
(§2) Test substances and drug administration. Solutions of allopreganolone (SAFC Pharma, Madison, Wis., U.S.A.) were made in miglyol (Neobee M5®, Spectrum Chemicals, Gardena, Calif.), canola oil (ConAgra Foods, Omaha, Nebr.) or peanut oil (Sigma-Aldrich, St. Louis, Mo.). The convulsant agent pentylenetetrazol (PTZ) (Sigma-Aldrich, St. Louis, Mo.) was dissolved in saline immediately before use and administered intravenously (i.v.). For the PTZ threshold test, allopregnanolone solutions were administered orally (p.o.) 30 min, 1 hr and 2 hr before PTZ infusion, in a volume equaling 10 ml/kg. For the 6-Hz seizure test, solutions of allopregnanolone in canola oil were administered in a volume equaling 20 ml/kg.
PTZ seizure threshold test. The threshold for various behavioral seizure stages induced by the GABA receptor antagonist PTZ, was determined by infusing PTZ via a 27-gauge, 0.75-inch “butterfly” needle inserted into the lateral tail vein. The needle was secured to the tail vein by a narrow piece of adhesive tape, and the animal was permitted to move freely inside an inverted plastic container with free aeration from the top. PTZ (10 mg/ml) were infused at a constant rate of 0.5 ml/min using a 1-ml syringe (BD Biosciences, Franklin Lakes, N.J.) mounted on a Harvard infusion pump (Harvard Apparatus Inc., Holliston, Mass.). The syringe was connected to the needle by polyethylene tubing. The infusion was stopped at 3 min or at the onset of tonic extension, whichever occurred first. The thresholds to the onset of tonic hindlimb extension were determined by measuring the latency from the start of convulsant infusion to the onset of all the response. The threshold value (milligrams per kilogram) was determined according to the following formula: (infusion duration [seconds]×infusion rate [milliliters per minute]×convulsant drug concentration [milligrams per milliliter]×1000)/(60 s×weight of mouse [grams]).

NIH Swiss mice [2] = experiment: 6-Hz seizure test; type: in vivo, mouse; details: dissolved in canola oil (10 mg/ml), 200 mg/kg, 32 mA for 3 s
Experimental: as §1
Test substances and drug administration. Solutions of allopreganolone (SAFC Pharma, Madison, Wis., U.S.A.) were made in miglyol (Neobee M5®, Spectrum Chemicals, Gardena, Calif.), canola oil (ConAgra Foods, Omaha, Nebr.) or peanut oil (Sigma-Aldrich, St. Louis, Mo.). […]
6-Hz seizure test. […] Animals were scored as protected or not protected. […]

NIH Swiss mice [3] = experiment: PTZ seizure challenge (80 mg/kg PTZ s.c.); type: in vivo, mouse
Experimental: (§3) NIH Swiss mice were fasted 2 hours prior to experiment participation. Allopregnanolone (ALP) was suspended in vehicle (Tween 80 or canola oil). The time point of maximal effect of ALP was established by gavaging ALP and scoring relevant behavioral parameters outlined in the Irwin Test. See, Sylvain Roux, et al., Current Protocols in Pharmacology, Unit Number: UNIT 10.10, DOI: 10.1002/0471141755.ph1010s27 Online Posting Date: January, 2005. Lethality, convulsion, tremor, Straub, abnormal gait, fear, sedation, reactivity to touch, loss of traction, loss of righting reflex were measured.
Anticonvulsant potential of ALP was determined with PTZ seizure challenge. Oral gavage various ALP concentrations at 50 μl/10 g body weight, t=−45 min or t=−90 min, 80 mg/kg PTZ s.c. at t=0. Observe 30 min for seizure protection (absence of clonic spasms).

NIH Swiss mice [4] = experiment: Irwin Test behavioral scoring (sedation); type: in vivo, mouse; details: 250 mg/kg in canola oil, oral
Experimental: as §3

[5] = Central nervous system effects of allopregnanolone in aqueous hydroxypropyl-beta-cyclodextrin solution; type: in vivo
[6] = Dissolution of allopregnanolone in oils; type: physicochemical; details: three oils: miglyol, canola oil, peanut oil
Experimental: as §2

[7] = oral delivery in canola oil (FIG. 4)

Structure (SMILES): CC(=O)[C@H]1CCC2C3CC[C@H]4C[C@H](O)CC[C@]4(C)C3CC[C@@]21C (stereo in doubt) [allopregnanolone, 1-(3-Hydroxy-10,13-dimethyl-2,3,4,5,6,7,8,9,11,12,14,15,16,17-tetradecahydro-1H-cyclopenta[a]phenanthren-17-yl)ethanone]
- duration of anti-seizure activity (NIH Swiss mice [1]; dissolved in canola oil and peanut oil, oral route): long-lasting anti-seizure activity
- anti-seizure activity 120 to 240 min after administration (NIH Swiss mice [1]; dissolved in canola oil or peanut oil, oral, 120 to 240 min after administration, in some cases): activity was also present
- anti-seizure activity 30 min after administration (NIH Swiss mice [1]; dissolved in canola oil or peanut oil, oral, 30 min after administration): no or only minimal activity
- anti-seizure activity 60 min after administration (NIH Swiss mice [1]; dissolved in canola oil or peanut oil, oral, 60 min after administration): strong activity
- anticonvulsant activity in the PTZ seizure threshold test (seizure threshold) (NIH Swiss mice [1]; dissolved in canola oil, orally administered): activity was obtained; also recorded: time-dependent increase in seizure threshold
- anticonvulsant activity in the PTZ seizure threshold test (NIH Swiss mice [1]; dissolved in miglyol, orally administered, 100 mg/kg): no bioactivity; also recorded: no activity; also recorded: inactive
- anticonvulsant activity in the PTZ seizure threshold test (seizure threshold) (NIH Swiss mice [1]; dissolved in peanut oil, orally administered): activity was obtained; also recorded: time-dependent increase in seizure threshold
- activity in the 6-Hz seizure test (NIH Swiss mice [2]): had activity
- anticonvulsant activity in the pentylenetetrazol seizure test (NIH Swiss mice [3]; 250 mg/kg in canola oil, oral): anticonvulsant activity
- effective threshold dose (NIH Swiss mice [3]; [7]): 25 to 75 mg/kg
- oral bioavailability (NIH Swiss mice [3]; [7]): markedly enhances
- sedation (NIH Swiss mice [4]): profound sedation
- central nervous system effects ([5]; high doses administered orally in aqueous solution of hydroxypropyl-beta-cyclodextrin): failed to produce central nervous system effects
- central nervous system effects ([5]; parenteral administration as aqueous solution in hydroxypropyl-beta-cyclodextrin): readily causes central nervous system effects
- dissolution in oils [6]: readily dissolve
